Source: ChEMBL document CHEMBL2150864 (Eur J Med Chem, 2012)

How the values were obtained:
[1] = Cytotoxicity against VEGFR expressing HAEC after 72 hrs by MTT assay; format: functional, Homo sapiens
HT-29 = experiment: Cytotoxicity against VEGFR expressing human HT-29 cells after 72 hrs by MTT assay; format: functional, cell-based; details: HT-29, 72 h
[2] = molecular target: Vascular endothelial growth factor receptor 2 (Homo sapiens, UniProt P35968); experiment: Binding affinity to DNA-tagged VEGFR2 by qPCR based competitive binding assay
Chain of Vascular endothelial growth factor receptor 2 (P35968 whole entry): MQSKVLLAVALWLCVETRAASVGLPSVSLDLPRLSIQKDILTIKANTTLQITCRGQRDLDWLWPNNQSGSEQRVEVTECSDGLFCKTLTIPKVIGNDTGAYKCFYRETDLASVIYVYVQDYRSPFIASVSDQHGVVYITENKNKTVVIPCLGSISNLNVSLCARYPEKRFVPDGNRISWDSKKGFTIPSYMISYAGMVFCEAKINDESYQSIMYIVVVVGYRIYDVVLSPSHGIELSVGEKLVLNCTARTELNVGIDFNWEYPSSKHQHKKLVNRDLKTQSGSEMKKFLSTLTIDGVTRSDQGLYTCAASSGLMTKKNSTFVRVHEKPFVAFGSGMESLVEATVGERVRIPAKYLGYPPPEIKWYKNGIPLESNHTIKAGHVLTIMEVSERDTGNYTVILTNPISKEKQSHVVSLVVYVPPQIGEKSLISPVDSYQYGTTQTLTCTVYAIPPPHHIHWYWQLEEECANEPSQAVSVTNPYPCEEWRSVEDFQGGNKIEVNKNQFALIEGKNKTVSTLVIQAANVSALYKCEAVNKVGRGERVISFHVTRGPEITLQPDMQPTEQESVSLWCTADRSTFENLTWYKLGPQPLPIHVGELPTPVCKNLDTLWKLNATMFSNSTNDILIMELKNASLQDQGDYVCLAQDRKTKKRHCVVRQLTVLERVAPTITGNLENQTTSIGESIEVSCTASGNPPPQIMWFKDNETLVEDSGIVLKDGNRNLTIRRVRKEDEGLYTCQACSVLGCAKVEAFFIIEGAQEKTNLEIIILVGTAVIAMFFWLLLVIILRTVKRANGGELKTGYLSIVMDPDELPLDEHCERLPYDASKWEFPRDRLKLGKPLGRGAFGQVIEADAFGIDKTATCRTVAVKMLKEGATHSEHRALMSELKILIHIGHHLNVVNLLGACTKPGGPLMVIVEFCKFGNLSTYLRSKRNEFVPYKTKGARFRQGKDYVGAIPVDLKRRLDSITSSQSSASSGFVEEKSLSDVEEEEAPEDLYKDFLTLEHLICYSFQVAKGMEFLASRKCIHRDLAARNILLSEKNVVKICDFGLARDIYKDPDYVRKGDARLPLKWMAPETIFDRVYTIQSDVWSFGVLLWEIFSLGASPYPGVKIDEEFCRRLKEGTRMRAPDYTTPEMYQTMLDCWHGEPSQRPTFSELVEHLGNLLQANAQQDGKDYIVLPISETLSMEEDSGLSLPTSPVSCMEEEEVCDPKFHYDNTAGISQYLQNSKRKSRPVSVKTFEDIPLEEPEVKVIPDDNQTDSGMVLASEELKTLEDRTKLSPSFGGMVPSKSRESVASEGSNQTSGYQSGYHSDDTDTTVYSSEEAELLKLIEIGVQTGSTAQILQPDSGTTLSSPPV

[3] = Metabolic stability in Wistar rat plasma at 39 MBq, iv after 60 mins; format: ADME, organism-based; details: read-out: Stability

| Kd [2] | remaining at 1 h [3] | Structure (SMILES) | IC50 [1] | IC50 (HT-29) |
| --- | --- | --- | --- | --- |
|  |  | CCN(CC)CCNC(=O)c1c(C)[nH]c(/C=C2\C(=O)Nc3ccc(F)cc32)c1C [SUNITINIB] | 0.1 µM |  |
| 0.02 µM |  | CCN(CC)CCNC(=O)c1c(C)[nH]c(/C=C2\C(=O)Nc3ccc(OC)cc32)c1C | 54.8 µM | 7.88 µM |
|  | > 70% | CCN(CC)CCNC(=O)c1c(C)[nH]c(/C=C2\C(=O)Nc3ccc(O[11CH3])cc32)c1C |  |  |
